Results: US7638540B2, “Benzofuran compound and medicinal composition containing the same” (The New Industry Research Organization, priority 2003, dated 2009)

What was measured:
[1] = system: LTB4 receptor; assay: TXB2 release from guinea pig eosinophils stimulated with LTB4 (LTB4 receptor antagonist activity); assay type: cell-based; conditions: 10^−3 M test compound (37.5 μl) added to 300 μl cell suspension, then 10^−7 M LTB4 (37.5 μl), 37° C. 15 min, positive control 100, negative control 0, N.D. = TXB2 concentration at measurement limit or less
Description: The LTB4 receptor antagonist activity of the test compound was examined using, as an index, thromboxane B2 (TXB2) released when stimulating eosinophil of guinea pig with LTB4.
Based on the method described in Japanese Journal of Pharmacology, vol. 70, p. 337-345 (1996) etc., eosinophils of guinea pig were prepared. A cell suspension (300 μl, 1.25×10^6 cells/ml) was placed in a 5 ml polypropylene test tube and, after incubation at 37° C. for 5 min., 10^−3 M test compound (37.5 μl) dissolved in 0.1% DMSO aqueous solution was added and the cells were continuously cultured for 5 min. Then, 10^−7 M LTB4 (37.5 μl) was added to induce the reaction and the cells were incubated at 37° C. for 15 min. The reaction was quenched in ice water, and the culture was centrifuged at 4° C., 3000 rpm for 10 min. The obtained supernatant was prepared as a sample for TXB2 measurement, and preserved at −80° C. before use for the measurement. The quantitation of TXB2 was performed using a TXB2 enzyme immunoassay kit (manufactured by Cayman Chemical Company). The release ratio (%) of TXB2 from the eosinophils was determined by the following formula: release ratio (%) of TXB2=[(average value of test compound administration group−average value of negative control group)/(average value of positive control group−average value of negative control group)]×100
As used herein, the positive control group means a group to which stimulation with LTB4 was applied but the same volume of a medium was given instead of the test compound, and the negative control group means a group to which stimulation with LTB4 was not applied, the same volume of a medium was given instead of LTB4, and the same volume of a medium was given instead of the test compound. When the release ratio of TXB2 is smaller than 0, it means that the measured TXB2 concentration was lower than that of the negative control group. When the TXB2 concentration in the sample was the measurement limit or less, N.D. is indicated.

| SMILES | Amount of TXB2 release (%) [1] [%] | melting point [°C] |
| --- | --- | --- |
| CC(=O)c1cc2c(/C(C)=C/C(=O)N3CCN(Cc4ccccc4)CC3)ccc(OC(C)c3ccccc3)c2o1 (stereo not drawn) [Example 10, (E)-3-[2-acetyl-7-(1-phenylethoxy)benzofuran-4-yl]-1-(4-benzylpiperazin-1-yl)-2-buten-1-one] | 23.43 | 196 to 202.1 |
| CCN(CC)C(=O)/C=C(\C)c1cc2c(Br)ccc(OCCCC(=O)O)c2o1 [Example 36, (E)-4-[4-bromo-2-(2-diethylcarbamoyl-1-methylvinyl)benzofuran-7-yloxy]butyric acid] | −0.301 | 125.5 to 127 |
| COc1cccc(NC(=O)/C=C(\C)c2cc3cccc(OC(c4ccccc4)c4ccccc4)c3o2)c1 [Example 38, (E)-3-(7-benzhydryloxybenzofuran-2-yl)-N-(3-methoxyphenyl)-2-butenamide] | 91.73 | 167.2 to 168.2 |
| COc1ccc(CCNC(=O)/C=C/C=C(\Cl)c2cc3cccc(OC)c3o2)cc1OC [Example 56, (2E,4Z)-5-chloro-5-(7-methoxybenzofuran-2-yl)-penta-2,4-dienoic acid [2-(3,4-dimethoxyphenyl)ethyl]amide] | 52.39 | 151.4 to 153.3 |
| COc1cccc(NC(=O)/C=C/C=C(\Cl)c2cc3cc(Br)ccc3o2)c1 [Example 54, (2E,4Z)-5-(5-bromobenzofuran-2-yl)-5-chloropenta-2,4-dienoic acid (3-methoxyphenyl)amide] | 60.6 | 204.3 to 207.1 |
| CC(=O)c1oc2ccc(/C(C)=C/C(=O)N3CCN(c4ccccc4)CC3)cc2c1N [Example 18, (E)-3-(2-acetyl-3-aminobenzofuran-5-yl)-1-(4-phenylpiperazin-1-yl)-2-buten-1-one] | 53.91 |  |
| COc1cccc2cc(C(C)NC(=O)/C=C/c3ccccc3)oc12 (stereo not drawn) [Example 132, (E)-N-[1-(7-methoxybenzofuran-2-yl)ethyl]-3-phenylacrylamide] | 14.05 | 154.5 to 156.5 |
| CC(=CC(=O)N1CCOCC1)c1cc2cccc(OC(c3ccccc3)c3ccccc3)c2o1 (stereo in doubt) [Example 42, (E)-3-(7-benzhydryloxybenzofuran-2-yl)-1-morpholino-2-buten-1-one] | 13.83 |  |
| CC(=O)c1cc2c(/C(C)=C/C(=O)N3CCN(c4ccccc4)CC3)ccc(OC(C)c3ccccc3)c2o1 (stereo not drawn) [Example 5, (E)-3-[2-acetyl-7-(1-phenylethoxy)benzofuran-4-yl]-1-(4-phenylpiperazin-1-yl)-2-buten-1-one] | 81.6 | 79 to 84.6 |
| CCN(CC)C(=O)/C=C(\C)c1ccc(OC(C)c2ccccc2)c2oc(C(C)=O)cc12 (stereo not drawn) [Example 1, (E)-3-[2-acetyl-7-(1-phenylethoxy)benzofuran-4-yl]-N,N-diethyl-2-butenamide] | 0.42 | 70.8 to 73 |
| COc1ccc(CCNC(=O)/C=C(\C)c2ccc3oc(C(C)=O)c(N)c3c2)cc1OC [Example 17, (E)-3-(2-acetyl-3-aminobenzofuran-5-yl)-N-[2-(3,4-dimethoxyphenyl)ethyl]-2-butenamide] | 27.92 | 168 to 173 |
| COc1ccc(CCNC(=O)/C=C(\C)c2ccc3oc(C(C)=O)c(NC(=O)c4cnoc4C)c3c2)cc1OC [Example 72, (E)-N-(2-acetyl-5-(2-[2-(3,4-dimethoxyphenyl)ethylcarbamoyl]-1-methylvinyl)benzofuran-3-yl)-5-methylisoxazole-4-carboxamide] | 84.46 |  |
| CCOC(=O)CCCOc1cccc2cc(/C(C)=C/C(=O)NCC(=O)OCC)oc12 [Example 40, Ethyl (E)-4-{2-[2-(ethoxycarbonylmethylcarbamoyl)-1-methylvinyl]benzofuran-7-yloxy}butyrate] | −0.18 | 96.2 to 98.5 |
| CCN(CC)C(=O)/C=C(\C)c1cc2cccc(OC(c3ccccc3)c3ccccc3)c2o1 [Example 37, (E)-3-(7-benzhydryloxybenzofuran-2-yl)-N,N-diethyl-2-butenamide] | 15.69 |  |
| COc1ccc2c(NC(=O)/C=C/c3ccccc3)c(C(C)=O)oc2c1 [Example 120, (E)-N-(2-acetyl-6-methoxybenzofuran-3-yl)-3-phenylacrylamide] | 1.32 | 142 to 144.5 |
| CCOC(=O)c1oc2ccccc2c1NC(=O)/C=C/c1ccccc1 [Example 119, Ethyl (E)-3-(3-phenylacryloylamino)benzofurane-2-carboxylate] | 9.8 | 162.4 to 163.8 |
| CCOC(=O)CCCOc1cccc2cc(/C(C)=C/C(=O)Nc3ccc(OC)cc3)oc12 [Example 28, Ethyl (E)-4-{2-[2-(4-methoxyphenylcarbamoyl)-1-methylvinyl]benzofuran-7-yloxy}butyrate] | −0.23 | 141.3 to 141.5 |
| CCN(CC)C(=O)/C=C(\C)c1ccc2oc(C(C)=O)c(NC(=O)Cc3ccc(OC)cc3)c2c1 [Example 21, (E)-3-{2-acetyl-3-[2-(4-methoxyphenyl)acetylamino]-benzofuran-5-yl}-N,N-diethyl-2-butenamide] | 56.57 | 121.8 to 122.3 |
| CC(=O)c1oc2ccc(/C(C)=C/C(=O)N3CCN(Cc4ccccc4)CC3)cc2c1N [Example 19, (E)-3-(2-acetyl-3-aminobenzofuran-5-yl)-1-(4-benzylpiperazin-1-yl)-2-buten-1-one] | 48.63 | 144 to 148.3 |
| CC(=O)c1oc2ccc(/C(C)=C/C(=O)N3CCN(c4ccccc4)CC3)cc2c1NC(=O)c1cnoc1C [Example 75, (E)-N-{2-acetyl-5-[1-methyl-3-oxo-3-(4-phenylpiperazin-1-yl)-1-propenyl]benzofuran-3-yl}-5-methylisoxazole-4-carboxamide] | 27.03 | 201.5 to 204.4 |
| COc1cccc(NC(=O)/C=C(/C)c2cc3c(S(=O)(=O)NCCc4ccc(OC)c(OC)c4)ccc(OCCCCl)c3o2)c1 [Example 52, (Z)-3-{7-(3-chloropropoxy)-4-[2-(3,4-dimethoxyphenyl)ethylsulfamoyl]benzofuran-2-yl}-N-(3-methoxyphenyl)-2-butenamide] | 60.6 | 146.1 to 150 |
| C/C=C/C(=O)Nc1c(C(=O)OCC)oc2ccccc12 [Example 118, Ethyl (E)-3-methyl-acryloylaminobenzofurane-2-carboxylate] | 73.84 | 143.2 to 145.6 |
| CCN(CC)C(=O)/C=C(\C)c1ccc2oc(C(C)=O)c(NC(=O)/C(C#N)=C(/C)O)c2c1 [Example 94, N-{2-acetyl-5-[(E)-2-diethylcarbamoyl-1-methylvinyl]benzofuran-3-yl}-2-cyano-3-hydroxy-(Z)-2-butenamide] | −0.1 | 169.3 to 171 |
| COc1ccc(CCNC(=O)/C=C(\C)c2ccc(OC(C)c3ccccc3)c3oc(C(C)=O)cc23)cc1OC (stereo not drawn) [Example 8, (E)-3-[2-acetyl-7-(l-phenylethoxy)benzofuran-4-yl]-N-[2-(3,4-dimethoxyphenyl)ethyl]-2-butenamide] | 41.73 |  |
| CCOC(=O)CCCOc1ccc(/C(C)=C/C(=O)N(CC)CC)c2cc(C(C)=O)oc12 [Example 14, Ethyl (E)-4-[2-acetyl-4-(2-diethylcarbamoyl-1-methylvinyl)benzofuran-7-yloxy]butyrate] | 44.81 |  |
| CCOC(=O)c1ccc(OC)c(NC(=O)/C=C(\C)c2ccc3oc(C(C)=O)c(N)c3c2)c1 [Example 16, Ethyl (E)-3-[3-(2-acetyl-3-aminobenzofuran-5-yl)-2-butenoylamino]-4-methoxybenzoate] | 56.57 | 189 to 193 |
| CCN(CC)C(=O)/C=C(/C)c1cc2cccc(OC(C)C)c2o1 [Example 34, (Z)-3-(7-isopropoxybenzofuran-2-yl)-N,N-diethyl-2-butenamide] | −0.063 |  |
| O=C(/C=C/c1ccccc1)Nc1c(C(=O)O)oc2ccccc12 [Example 121, (E)-3-(3-phenylacryloylamino)benzofurane-2-carboxylic acid] | 5.77 | 197.8 to 200.2 |
| CCOC(=O)CCCOc1ccc(Br)c2cc(/C(C)=C/C(=O)N(CC)CC)oc12 [Example 35] | 1.02 |  |
| CCNS(=O)(=O)c1ccc(OCCCC(=O)OCC)c2oc(/C(C)=C\C(=O)N(CC)CC)cc12 [Example 48, Ethyl (Z)-4-[2-(2-diethylcarbamoyl-1-methylvinyl)-4-ethylsulfamoylbenzofuran-7-yloxy]butyrate] | 53.91 |  |
